Data taken from US20260132132A1, “3A,4,5,6-TETRAHYDRO-1 H-PYRAZOLO[3,4-C]PYRIDIN-7(7AH)-ONE DERIVATIVES AS FACTOR XIIA INHIBITORS” (KALVISTA PHARMACEUTICALS LIMITED, priority 2022, published 2026).

target: T1, Human Factor XIIa (hFXIIa) (Homo sapiens, UniProt P00748); test: Determination of Human Factor XIIa (hFXIIa) inhibition, fluorogenic substrate IC50 assay; assay type: biochemical; conditions: fluorogenic substrate H-DPro-Phe-Arg-AFC at Km, 25° C., read-out: Human FXIIa IC50
T1 construct: purchased Enzyme Research Laboratories
T1 sequence (P00748 373-615 limits assumed): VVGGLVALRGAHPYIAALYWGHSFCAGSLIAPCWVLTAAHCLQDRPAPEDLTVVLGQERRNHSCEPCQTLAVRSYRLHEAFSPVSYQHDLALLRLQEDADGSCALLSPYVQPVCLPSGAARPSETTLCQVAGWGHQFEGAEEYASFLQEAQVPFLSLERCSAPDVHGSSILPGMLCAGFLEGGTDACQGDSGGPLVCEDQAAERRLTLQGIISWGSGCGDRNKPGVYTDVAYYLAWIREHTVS
T1 sequence (P00748 20-372 partner limits assumed): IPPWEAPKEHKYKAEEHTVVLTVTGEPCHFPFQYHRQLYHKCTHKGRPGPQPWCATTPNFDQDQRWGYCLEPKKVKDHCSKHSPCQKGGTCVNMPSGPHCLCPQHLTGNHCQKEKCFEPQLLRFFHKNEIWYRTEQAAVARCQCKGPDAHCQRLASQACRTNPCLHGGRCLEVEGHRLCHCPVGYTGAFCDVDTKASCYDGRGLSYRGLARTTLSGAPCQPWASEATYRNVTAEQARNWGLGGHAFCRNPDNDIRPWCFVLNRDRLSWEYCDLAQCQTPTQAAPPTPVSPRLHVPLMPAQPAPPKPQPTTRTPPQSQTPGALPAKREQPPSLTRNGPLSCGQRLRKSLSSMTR
Protocol: Determination of Human Factor XIIa (hFXIIa) inhibition
The Km for the cleavage of the substrate by hFXIIa was determined by standard transformation of the Michaelis-Menten equation, with subsequent inhibition assays performed at substrate Km concentration.

First: O=C(NCc1ccccc1)c1nn(-c2cccc(Cl)c2)c2c1CCN(c1cccc(CN3CCCC3)c1)C2=O [Example 1017, N-benzyl-1-(3-chlorophenyl)-7-oxo-6-(3-(pyrrolidin-1-ylmethyl)phenyl)-4,5,6,7-tetrahydro-1H-pyrazolo[3,4-c]pyridine-3-carboxamide]
Second: O=C(NCc1cnccc1Cl)c1nn(-c2cccc(Cl)c2)c2c1CCN(c1cccc(CN3CCCCC3)c1)C2=O [Example 1174, 1-(3-chlorophenyl)-N-((4-chloropyridin-3-yl)methyl)-7-oxo-6-(3-(piperidin-1-ylmethyl)phenyl)-4,5,6,7-tetrahydro-1H-pyrazolo[3,4-c]pyridine-3-carboxamide]
The IC50 of the first is higher: 300 to 1000 nM for the first, 100 to 300 nM for the second.

`CCN1CCc2ccc(N3CCc4c(C(=O)NC5C6COCC65)nn(-c5cccc(Cl)c5)c4C3=O)cc2C1` (centres unmarked) [Example 1093, N-(3-oxabicyclo[3.1.0]hexan-6-yl)-1-(3-chlorophenyl)-6-(2-ethyl-1,2,3,4-tetrahydroisoquinolin-7-yl)-7-oxo-4,5,6,7-tetrahydro-1H-pyrazolo[3,4-c]pyridine-3-carboxamide] and `CCN1CCc2ccc(N3CCc4c(C(=O)N[C@H]5CCOC5)nn(-c5cccc(Cl)c5)c4C3=O)cc2C1` [Example 1090, (S)-1-(3-chlorophenyl)-6-(2-ethyl-1,2,3,4-tetrahydroisoquinolin-7-yl)-7-oxo-N-(tetrahydrofuran-3-yl)-4,5,6,7-tetrahydro-1H-pyrazolo[3,4-c]pyridine-3-carboxamide] fall in the same range of IC50: 100 to 300 nM for the first, 100 to 300 nM for the second.

Compared with `CCN1CCc2cnc(N3CCc4c(C(=O)NCC5CC5)nn(-c5cccc(Cl)c5)c4C3=O)nc2C1` [Example 1056, 1-(3-Chlorophenyl)-N-(cyclopropylmethyl)-6-(7-ethyl-5,6,7,8-tetrahydropyrido[3,4-d]pyrimidin-2-yl)-7], `CN1CCc2ncc(N3CCc4c(C(=O)NCC5CC5)nn(-c5cccc(Cl)c5)c4C3=O)cc2C1=O` [Example 1301, 1-(3-chlorophenyl)-N-(cyclopropylmethyl)-6-(6-methyl-5-oxo-5,6,7,8-tetrahydro-1,6-naphthyridin-3-yl)-7-oxo-4,5,6,7-tetrahydro-1H-pyrazolo[3,4-c]pyridine-3-carboxamide] is higher in IC50: 300 to 1000 nM for the first, 1000 to 3000 nM for the second.

`CN(CCO)C(=O)c1cccc(N2CCc3c(C(=O)NCC4CC4)nn(-c4cccc(Cl)c4)c3C2=O)c1` [Example 1312, 1-(3-chlorophenyl)-N-(cyclopropylmethyl)-6-(3-((2-hydroxyethyl)(methyl)carbamoyl)phenyl)-7-oxo-4,5,6,7-tetrahydro-1H-pyrazolo[3,4-c]pyridine-3-carboxamide] and `CCOC(=O)c1nn(-c2cccc(Cl)c2)c2c1CCN(c1cccc(C(=O)N(C)C)c1)C2=O` [Example 1196, ethyl 1-(3-chlorophenyl)-6-(3-(dimethylcarbamoyl)phenyl)-7-oxo-4,5,6,7-tetrahydro-1H-pyrazolo[3,4-c]pyridine-3-carboxylate] fall in the same range of IC50: 3000 to 10000 nM for the first, 3000 to 10000 nM for the second.

`CN1CCc2ccc(N3CCc4c(C(=O)NCC56CC(CO)(CCO5)C6)nn(-c5cccc(Cl)c5)c4C3=O)cc2C1=O` [Example 1283, 1-(3-chlorophenyl)-N-((5-(hydroxymethyl)-2-oxabicyclo[3.1.1]heptan-1-yl)methyl)-6-(2-methyl-1-oxo-1,2,3,4-tetrahydroisoquinolin-7-yl)-7-oxo-4,5,6,7-tetrahydro-1H-pyrazolo[3,4-c]pyridine-3-carboxamide] and `Cc1cccc(-n2nc(C(=O)NCC3CC3)c3c2C(=O)N(c2ccc4c(c2)C(=O)N(C)CC4)CC3)c1` [Example 2011, N-(cyclopropylmethyl)-6-(2-methyl-1-oxo-1,2,3,4-tetrahydroisoquinolin-7-yl)-7-oxo-1-(m-tolyl)-4,5,6,7-tetrahydro-1H-pyrazolo[3,4-c]pyridine-3-carboxamide] fall in the same range of IC50: 300 to 1000 nM for the first, 300 to 1000 nM for the second.

`Cc1cc(CNC(=O)c2nn(-c3cccc(Cl)c3)c3c2CCN(c2ccc4c(c2)C(=O)N(CCO)CC4)C3=O)n[nH]1` [Example 1255, 1-(3-chlorophenyl)-6-(2-(2-hydroxyethyl)-1-oxo-1,2,3,4-tetrahydroisoquinolin-7-yl)-N-((5-methyl-1H-pyrazol-3-yl)methyl)-7-oxo-4,5,6,7-tetrahydro-1H-pyrazolo[3,4-c]pyridine-3-carboxamide] and `CCN1CCc2ccc(N3CCc4c(C(=O)NCc5cc(C)n[nH]5)nn(-c5cccc(Cl)c5)c4C3=O)cc2C1` [Example 1086, 1-(3-chlorophenyl)-6-(2-ethyl-1,2,3,4-tetrahydroisoquinolin-7-yl)-N-((3-methyl-1H-pyrazol-5-yl)methyl)-7-oxo-4,5,6,7-tetrahydro-1H-pyrazolo[3,4-c]pyridine-3-carboxamide] fall in the same range of IC50: 100 to 300 nM for the first, 100 to 300 nM for the second.

`CC(C)n1ccc(CNC(=O)c2nn(-c3cccc(Cl)c3)c3c2CCN(c2ccc4c(c2)C(=O)N(C)CC4)C3=O)n1` [Example 1296, 1-(3-chlorophenyl)-N-((1-isopropyl-1H-pyrazol-3-yl)methyl)-6-(2-methyl-1-oxo-1,2,3,4-tetrahydroisoquinolin-7-yl)-7-oxo-4,5,6,7-tetrahydro-1H-pyrazolo[3,4-c]pyridine-3-carboxamide] and `C[C@H](NC(=O)c1nn(-c2cccc(Cl)c2)c2c1CCN(c1ccc3c(c1)C(=O)N(C)CC3)C2=O)c1cccnc1` [Example 1215, (S)-1-(3-chlorophenyl)-6-(2-methyl-1-oxo-1,2,3,4-tetrahydroisoquinolin-7-yl)-7-oxo-N-(1-(pyridin-3-yl)ethyl)-4,5,6,7-tetrahydro-1H-pyrazolo[3,4-c]pyridine-3-carboxamide] fall in the same range of IC50: 100 to 300 nM for the first, 100 to 300 nM for the second.

Compared with `CN1Cc2ccc(N3CCc4c(C(=O)NCc5ccccc5)nn(-c5cccc(Cl)c5)c4C3=O)cc2C1` [Example 1028, N-benzyl-1-(3-chlorophenyl)-6-(2-methylisoindolin-5-yl)-7-oxo-4,5,6,7-tetrahydro-1H-pyrazolo[3,4-c]pyridine-3-carboxamide], `CN1CCc2ccc(N3CCc4c(C(=O)NCc5ccoc5)nn(-c5cccc(Cl)c5)c4C3=O)cc2C1` [Example 1068, 1-(3-chlorophenyl)-N-(furan-3-ylmethyl)-6-(2-methyl-1,2,3,4-tetrahydroisoquinolin-7-yl)-7-oxo-4,5,6,7-tetrahydro-1H-pyrazolo[3,4-c]pyridine-3-carboxamide] is lower in IC50: 300 to 1000 nM for the first, 100 to 300 nM for the second.

Compared with `CN1CCc2ccc(N3CCc4c(C(=O)NCC5CC5)nn(-c5cncc(Cl)c5)c4C3=O)cc2C1=O` [Example 2021, 1-(5-chloropyridin-3-yl)-N-(cyclopropylmethyl)-6-(2-methyl-1-oxo-1,2,3,4-tetrahydroisoquinolin-7-yl)-7-oxo-4,5,6,7-tetrahydro-1H-pyrazolo[3,4-c]pyridine-3-carboxamide], `CN1CCc2ccc(N3CCc4c(C(=O)NCC5CC5)nn(-c5cc(Cl)cc(C(N)=O)c5)c4C3=O)cc2C1=O` [Example 2014, 1-(3-carbamoyl-5-chlorophenyl)-N-(cyclopropylmethyl)-6-(2-methyl-1-oxo-1,2,3,4-tetrahydroisoquinolin-7-yl)-7-oxo-4,5,6,7-tetrahydro-1H-pyrazolo[3,4-c]pyridine-3-carboxamide] is lower in IC50: 3000 to 10000 nM for the first, 300 to 1000 nM for the second. The second is the more potent here.

First: Cc1cc(CNC(=O)c2nn(-c3cccc(Cl)c3)c3c2CCN(c2ccc4c(c2)CN(CCO)CC4)C3=O)ccn1 [Example 1171, 1-(3-chlorophenyl)-6-(2-(2-hydroxyethyl)-1,2,3,4-tetrahydroisoquinolin-7-yl)-N-((2-methylpyridin-4-yl)methyl)-7-oxo-4,5,6,7-tetrahydro-1H-pyrazolo[3,4-c]pyridine-3-carboxamide]
Second: O=C(NCC1CC1)c1nn(-c2cccc(Cl)c2)c2c1CCN(c1ccc3c(c1)CN(CCCO)CC3)C2=O [Example 1087, 1-(3-chlorophenyl)-N-(cyclopropylmethyl)-6-(2-(3-hydroxypropyl)-1,2,3,4-tetrahydroisoquinolin-7-yl)-7-oxo-4,5,6,7-tetrahydro-1H-pyrazolo[3,4-c]pyridine-3-carboxamide]
The IC50 of the first is lower: 10 to 100 nM for the first, 100 to 300 nM for the second. The first is the more potent here.

`Cc1cc(CNC(=O)c2nn(-c3cccc(Cl)c3)c3c2CCN(c2ccc4c(c2)C(=O)N(C2COC2)CC4)C3=O)nn1C` [Example 1290, 1-(3-chlorophenyl)-N-((1,5-dimethyl-1H-pyrazol-3-yl)methyl)-6-(2-(oxetan-3-yl)-1-oxo-1,2,3,4-tetrahydroisoquinolin-7-yl)-7-oxo-4,5,6,7-tetrahydro-1H-pyrazolo[3,4-c]pyridine-3-carboxamide] and `O=C(NCC1CC1)c1nn(-c2cccc(Cl)c2)c2c1CCN(c1ccc3c(c1)C(=O)N(CCO)CCO3)C2=O` [Example 1289, 1-(3-chlorophenyl)-N-(cyclopropylmethyl)-6-(4-(2-hydroxyethyl)-5-oxo-2,3,4,5-tetrahydrobenzo[f][1,4]oxazepin-7-yl)-7-oxo-4,5,6,7-tetrahydro-1H-pyrazolo[3,4-c]pyridine-3-carboxamide] fall in the same range of IC50: 100 to 300 nM for the first, 100 to 300 nM for the second.

Compound `CC(=O)NCCN1CCc2ccc(N3CCc4c(C(=O)NCC5CC5)nn(-c5cccc(Cl)c5)c4C3=O)cc2C1` [Example 1081, 6-(2-(2-acetamidoethyl)-1,2,3,4-tetrahydroisoquinolin-7-yl)-1-(3-chlorophenyl)-N-(cyclopropylmethyl)-7-oxo-4,5,6,7-tetrahydro-1H-pyrazolo[3,4-c]pyridine-3-carboxamide] has an IC50 of 300 to 1000 nM.
